Consider 7 molecules from ChEMBL document CHEMBL3286142, “Synthesis and antihyperglycemic evaluation of new 2-hydrazolyl-4-thiazolidinone-5-carboxylic acids having pyrazolyl pharmacophores” (2014).

The subject of the assay is Rattus norvegicus. The assay can be described thus: Antihyperglycemic activity in sucrose loaded albino Sprague-Dawley rat model assessed as improvement of glucose tolerance by measuring reduction in glucose AUC at 100 mg/kg, po administered 30 mins prior to sucrose load measured for 2 hrs by oral sucrose tolerance test. It counts as functional. Set-up: scale not given: the % may be the effect or the level left.
For `Cc1ccc(-c2nn(-c3ccccc3)cc2/C=N\N=C2\NC(=O)C(CC(=O)O)S2)cc1` (configuration not stated), the Activity was 6.09%. The figure for `COc1ccc(-c2nn(-c3ccccc3)cc2/C=N\N=C2\NC(=O)C(CC(=O)O)S2)cc1` (configuration not stated) is 6.97%. The figure for `O=C(O)CC1S/C(=N\N=C/c2cn(-c3ccccc3)nc2-c2ccc(F)cc2)NC1=O` (configuration not stated) is 7.64%; for `O=C(O)CC1S/C(=N\N=C/c2cn(-c3ccccc3)nc2-c2ccc(Br)cc2)NC1=O` (configuration not stated) it is 5.69%. The figure for `O=C(O)CC1S/C(=N\N=C/c2cn(-c3ccccc3)nc2-c2ccc([N+](=O)[O-])cc2)NC1=O` (configuration not stated) is 7.57%; for `O=C(O)CC1S/C(=N\N=C/c2cn(-c3ccccc3)nc2-c2ccc(O)cc2)NC1=O` (configuration not stated) it is 7.97%. Take `CN(C)C(=N)NC(=N)N` [METFORMIN]: the Activity is 14.1%.
